Results from PubChem BioAssay (NCI).
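Dose response: 5 concentrations. Exposure: 48 h. Format: 96-well plates. Endpoint: linear interpolation; highest concentration if not reached. Abbreviation: GI50, concentration required for 50% inhibition of growth. At the TGI there is no net growth.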

Tests used:
Assay in all cases: DTP human tumour cell line panel, 48 h
HT29 colon = system: HT29 colon
EKVX NSCLC = system: EKVX NSCLC
RPMI-8226 leukemia = system: RPMI-8226 leukemia
786-0 renal = system: 786-0 renal
BT-549 breast = system: BT-549 breast
CAKI-1 renal = system: CAKI-1 renal
SR leukemia = system: SR leukemia
TK-10 renal = system: TK-10 renal
T-47D breast = system: T-47D breast
HCT-116 colon = system: HCT-116 colon
SK-MEL-5 melanoma = system: SK-MEL-5 melanoma
MDA-MB-435 = system: MDA-MB-435
UO-31 renal = system: UO-31 renal
UACC-257 melanoma = system: UACC-257 melanoma
M14 melanoma = system: M14 melanoma
OVCAR-3 ovarian = system: OVCAR-3 ovarian
SNB-19 CNS = system: SNB-19 CNS
NCI-H522 lung = system: NCI-H522 lung
A498 renal = system: A498 renal
SN12C renal = system: SN12C renal
OVCAR-8 ovarian = system: OVCAR-8 ovarian
LOX IMVI melanoma = system: LOX IMVI melanoma
U251 CNS = system: U251 CNS
MCF7 breast = system: MCF7 breast
HL-60(TB) leukemia = system: HL-60(TB) leukemia
OVCAR-4 ovarian = system: OVCAR-4 ovarian
KM12 colon = system: KM12 colon
SW-620 colon = system: SW-620 colon
HCC-2998 colon = system: HCC-2998 colon
COLO 205 colon = system: COLO 205 colon
SF-539 CNS = system: SF-539 CNS
OVCAR-5 ovarian = system: OVCAR-5 ovarian
K-562 leukemia = system: K-562 leukemia
HOP-92 NSCLC = system: HOP-92 NSCLC
PC-3 prostate = system: PC-3 prostate
SF-295 CNS = system: SF-295 CNS
DU-145 prostate = system: DU-145 prostate
HCT-15 colon = system: HCT-15 colon
ACHN renal = system: ACHN renal
NCI/ADR-RES ovarian = system: NCI/ADR-RES ovarian
SK-MEL-28 melanoma = system: SK-MEL-28 melanoma
SF-268 CNS = system: SF-268 CNS
HOP-62 NSCLC = system: HOP-62 NSCLC
NCI-H23 lung = system: NCI-H23 lung
HS 578T breast = system: HS 578T breast
MDA-MB-231 breast = system: MDA-MB-231 breast
SNB-75 CNS = system: SNB-75 CNS
A549 NSCLC = system: A549 NSCLC
RXF 393 renal = system: RXF 393 renal
MOLT-4 leukemia = system: MOLT-4 leukemia
NCI-H226 lung = system: NCI-H226 lung
MALME-3M melanoma = system: MALME-3M melanoma
NCI-H460 lung = system: NCI-H460 lung
SK-OV-3 ovarian = system: SK-OV-3 ovarian
CCRF-CEM leukemia = system: CCRF-CEM leukemia
UACC-62 melanoma = system: UACC-62 melanoma
SK-MEL-2 melanoma = system: SK-MEL-2 melanoma

SMILES: CN(C)CCN1C(=O)c2cccc3c(N)ccc(c23)C1=O
- GI50 (HT29 colon): 9.06 µM
- TGI (HT29 colon): > 25 µM
- GI50 (EKVX NSCLC): 14.2 µM
- TGI (EKVX NSCLC): > 25 µM
- GI50 (RPMI-8226 leukemia): 7.71 µM
- TGI (RPMI-8226 leukemia): > 25 µM
- GI50 (786-0 renal): 14.1 µM
- TGI (786-0 renal): > 25 µM
- GI50 (BT-549 breast): > 25 µM
- TGI (BT-549 breast): > 25 µM
- GI50 (CAKI-1 renal): 4.86 µM
- TGI (CAKI-1 renal): 15 µM
- GI50 (SR leukemia): 4.59 µM
- TGI (SR leukemia): 13.3 µM
- GI50 (TK-10 renal): 9.15 µM
- TGI (TK-10 renal): > 25 µM
- GI50 (T-47D breast): 17 µM
- TGI (T-47D breast): > 25 µM
- GI50 (HCT-116 colon): 9.49 µM
- TGI (HCT-116 colon): > 25 µM
- GI50 (SK-MEL-5 melanoma): 9.13 µM
- TGI (SK-MEL-5 melanoma): > 25 µM
- GI50 (MDA-MB-435): 11.1 µM
- TGI (MDA-MB-435): > 25 µM
- GI50 (UO-31 renal): 6.76 µM
- TGI (UO-31 renal): > 25 µM
- GI50 (UACC-257 melanoma): 11.2 µM
- TGI (UACC-257 melanoma): > 25 µM
- GI50 (M14 melanoma): 11.3 µM
- TGI (M14 melanoma): > 25 µM
- GI50 (OVCAR-3 ovarian): 15.9 µM
- TGI (OVCAR-3 ovarian): > 25 µM
- GI50 (SNB-19 CNS): 14.3 µM
- TGI (SNB-19 CNS): > 25 µM
- GI50 (NCI-H522 lung): 7.12 µM
- TGI (NCI-H522 lung): > 25 µM
- GI50 (A498 renal): 11.5 µM
- TGI (A498 renal): > 25 µM
- GI50 (SN12C renal): 10 µM
- TGI (SN12C renal): > 25 µM
- GI50 (OVCAR-8 ovarian): 9.53 µM
- TGI (OVCAR-8 ovarian): > 25 µM
- GI50 (LOX IMVI melanoma): 8.44 µM
- TGI (LOX IMVI melanoma): > 25 µM
- GI50 (U251 CNS): 10.7 µM
- TGI (U251 CNS): > 25 µM
- GI50 (MCF7 breast): 7.59 µM
- TGI (MCF7 breast): > 25 µM
- GI50 (HL-60(TB) leukemia): 4.33 µM
- TGI (HL-60(TB) leukemia): 18.9 µM
- GI50 (OVCAR-4 ovarian): 14.1 µM
- TGI (OVCAR-4 ovarian): > 25 µM
- GI50 (KM12 colon): 14.2 µM
- TGI (KM12 colon): > 25 µM
- GI50 (SW-620 colon): 10.1 µM
- TGI (SW-620 colon): > 25 µM
- GI50 (HCC-2998 colon): 17.8 µM
- TGI (HCC-2998 colon): > 25 µM
- GI50 (COLO 205 colon): 8.18 µM
- TGI (COLO 205 colon): > 25 µM
- GI50 (SF-539 CNS): 9.14 µM
- TGI (SF-539 CNS): > 25 µM
- GI50 (OVCAR-5 ovarian): 15.1 µM
- TGI (OVCAR-5 ovarian): > 25 µM
- GI50 (K-562 leukemia): 6.76 µM
- TGI (K-562 leukemia): 20.4 µM
- GI50 (HOP-92 NSCLC): 19.4 µM
- TGI (HOP-92 NSCLC): > 25 µM
- GI50 (PC-3 prostate): 13.5 µM
- TGI (PC-3 prostate): > 25 µM
- GI50 (SF-295 CNS): 10 µM
- TGI (SF-295 CNS): > 25 µM
- GI50 (DU-145 prostate): 13.6 µM
- TGI (DU-145 prostate): > 25 µM
- GI50 (HCT-15 colon): 9.32 µM
- TGI (HCT-15 colon): > 25 µM
- GI50 (ACHN renal): 7.9 µM
- TGI (ACHN renal): > 25 µM
- GI50 (NCI/ADR-RES ovarian): 16.9 µM
- TGI (NCI/ADR-RES ovarian): > 25 µM
- GI50 (SK-MEL-28 melanoma): 11.9 µM
- TGI (SK-MEL-28 melanoma): > 25 µM
- GI50 (SF-268 CNS): 15 µM
- TGI (SF-268 CNS): > 25 µM
- GI50 (HOP-62 NSCLC): 22.9 µM
- TGI (HOP-62 NSCLC): > 25 µM
- GI50 (NCI-H23 lung): 15 µM
- TGI (NCI-H23 lung): > 25 µM
- GI50 (HS 578T breast): 15.7 µM
- TGI (HS 578T breast): > 25 µM
- GI50 (MDA-MB-231 breast): 16 µM
- TGI (MDA-MB-231 breast): > 25 µM
- GI50 (SNB-75 CNS): > 25 µM
- TGI (SNB-75 CNS): > 25 µM
- GI50 (A549 NSCLC): 9.04 µM
- TGI (A549 NSCLC): > 25 µM
- GI50 (RXF 393 renal): 7.91 µM
- TGI (RXF 393 renal): 24.8 µM
- GI50 (MOLT-4 leukemia): 6.82 µM
- TGI (MOLT-4 leukemia): 20.2 µM
- GI50 (NCI-H226 lung): 7.69 µM
- TGI (NCI-H226 lung): > 25 µM
- GI50 (MALME-3M melanoma): 7.74 µM
- TGI (MALME-3M melanoma): > 25 µM
- GI50 (NCI-H460 lung): 7.42 µM
- TGI (NCI-H460 lung): 23.8 µM
- GI50 (SK-OV-3 ovarian): 15.9 µM
- TGI (SK-OV-3 ovarian): > 25 µM
- GI50 (CCRF-CEM leukemia): 9.63 µM
- TGI (CCRF-CEM leukemia): > 25 µM
- GI50 (UACC-62 melanoma): 7.39 µM
- TGI (UACC-62 melanoma): > 25 µM
- GI50 (SK-MEL-2 melanoma): 11.6 µM
- TGI (SK-MEL-2 melanoma): > 25 µM
